Experimental data: patent publication US20240300991A1, “NUCLEOSIDE DERIVATIVE HAVING MULTI-TARGET KINASE INHIBITORY ACTIVITY AND PHARMACEUTICAL COMPOSITION FOR PREVENTING AND TREATING CANCER COMPRISING SAME” (FUTURE MEDICINE CO., LTD., priority 2021, published 2024)

Legend:
[1] = biological target: T1, CSNK1D (Homo sapiens, UniProt P48730); experiment: Kinase inhibition test (DNA-tagged kinase, affinity resin, qPCR readout); assay type: binding; set-up: key: (−) indicates no effect; (+) indicates weak inhibitory activity; (++) indicates a moderate level of inhibitory activity; (+++) indicates strong inhibitory activity; settings: 1 μM of compound
T1 construct: made in house
Excerpt: (§1) In order to examine the inhibitory activity of the nucleoside derivatives of the present invention synthesized in the Preparation Examples against kinases, the nucleoside derivatives were confirmed to have inhibitory activity against neurotrophic tyrosine kinase receptor type 1 or tropomyosin receptor kinase A (NTRK1), casein kinase 1 isoform delta (CSNK1D), dual specificity tyrosine-phosphorylation-regulated kinase 1A (DYRK1A), dual specificity tyrosine-phosphorylation-regulated kinase 1B (DYRK1B) and receptor-type tyrosine-protein kinase or fms like tyrosine kinase 3 or cluster of differentiation antigen 135 (CD135) or fetal liver kinase-2 (Flk2) (FLT3).
(§2) The inhibition measurement method is as follows. Most of the kinases were produced by culturing a phage in which BL21 E. coli was tagged with a kinase at 32° C. until lysis, followed by centrifugation and filtration. Further, the kinases were produced using HEK-293 cells. Thereafter, the kinases were DNA tagged for qPCR. After an affinity resin was prepared by stirring a biotin-tagged substrate onto streptavidin-coated beads for 30 minutes, a non-specifically bound substrate was washed with a buffer (SeaBlock (Pierce), 1% BSA, 0.05% Tween 20, 1 mM DTT).
(§3) For a kinase test, the kinase, the substrate, the affinity resin, and a test material dissolved in dimethyl sulfoxide were stirred together in a buffer (20% SeaBlock, 0.17×PBS, 0.05% Tween20, and 6 mM DTT) at room temperature for 1 hour. Thereafter, an affinity substrate was washed with a buffer (1×PBS, 0.05% Tween20), and then suspended in an elution buffer (1×PBS, 0.05% Tween20, 0.5 μM non-biotinylated affinity ligand), and the resulting suspension was stirred. The concentration of the kinase was quantified by qPCR.

[2] = biological target: T2, DYRK1A (Homo sapiens, UniProt Q13627); experiment: as above; assay type: binding; set-up: key: (−) indicates no effect; (+) indicates weak inhibitory activity; (++) indicates a moderate level of inhibitory activity; (+++) indicates strong inhibitory activity; settings: 1 μM of compound
T2 construct: made in house
Excerpt: as §1, §2, §3

[3] = biological target: T3, DYRK1B (Homo sapiens, UniProt Q9Y463); experiment: as above; assay type: binding; set-up: key: (−) indicates no effect; (+) indicates weak inhibitory activity; (++) indicates a moderate level of inhibitory activity; (+++) indicates strong inhibitory activity; settings: 1 μM of compound
T3 construct: made in house
Excerpt: as §1, §2, §3

[4] = biological target: T4, NTRK1 (Homo sapiens, UniProt P04629); experiment: as above; assay type: binding; set-up: key: (−) indicates no effect; (+) indicates weak inhibitory activity; (++) indicates a moderate level of inhibitory activity; (+++) indicates strong inhibitory activity; settings: 1 μM of compound
T4 construct: made in house
Excerpt: as §1, §2, §3

[5] = tested on: A549 (lung cancer cells); experiment: Inhibitory activity against cancer cells (sulforhodamine B staining); assay type: cell-based; settings: 3 days, SRB staining
Method: (§4) In order to examine the anticancer activity of the nucleoside derivatives of the present invention synthesized in the Preparation Examples, the ICso of each of A549 (lung cancer cells), HCT116 (colon cancer cells), MDA-MB-231 (breast cancer cells), SK-Hep-1 (liver cancer cells), SNU638 (stomach cancer cells) and PC-3 (prostate cancer cells) against cancer cells was measured.
(§5) The test method is as follows. Cells were allowed to stand for 1 day and set as a control on day 0. Further, after a test material was added to the cells, the cells were allowed to stand for 3 days. Thereafter, the cells were stained with 1% acetic acid and 0.4% sulforhodamine B. The stained cells were dried and dissolved in 10 mM Tris (pH 10.0). Absorbance was measured at 515 nm, and the degree of cell division was determined using the following equation. After calculation as Cell division (%)=(average absorbancetest material−average absorbanceday 0)/(average absorbance control-average absorbanceday 0)×100, the degree of cell division was calculated through a non-linear regression analysis using Table Curve 2D v5.01 (Systat Software Inc., San Jose, CA, USA).

[6] = tested on: HCT116 (colon cancer cells); experiment: as above; assay type: cell-based; settings: 3 days, SRB staining
Method: as §4, §5

[7] = tested on: MDA-MB-231 (breast cancer cells); experiment: as above; assay type: cell-based; settings: 3 days, SRB staining
Method: as §4, §5

[8] = tested on: PC-3 (prostate cancer cells); experiment: as above; assay type: cell-based; settings: 3 days, SRB staining
Method: as §4, §5

[9] = tested on: SK-Hep-1 (liver cancer cells); experiment: as above; assay type: cell-based; settings: 3 days, SRB staining
Method: as §4, §5

[10] = tested on: SNU638 (stomach cancer cells); experiment: as above; assay type: cell-based; settings: 3 days, SRB staining
Method: as §4, §5

T1 sequence (P48730 whole entry): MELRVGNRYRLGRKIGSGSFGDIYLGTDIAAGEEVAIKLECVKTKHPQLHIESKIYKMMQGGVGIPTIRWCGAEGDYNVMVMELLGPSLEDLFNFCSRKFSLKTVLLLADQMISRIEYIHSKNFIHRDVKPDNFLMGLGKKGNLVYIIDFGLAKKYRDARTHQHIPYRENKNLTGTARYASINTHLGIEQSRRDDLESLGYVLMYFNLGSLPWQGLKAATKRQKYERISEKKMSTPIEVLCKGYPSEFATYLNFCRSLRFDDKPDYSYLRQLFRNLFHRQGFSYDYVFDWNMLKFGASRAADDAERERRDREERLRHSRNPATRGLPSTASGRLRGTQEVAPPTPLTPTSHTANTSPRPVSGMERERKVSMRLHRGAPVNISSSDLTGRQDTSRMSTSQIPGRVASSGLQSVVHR
T4 sequence (P04629 33-796): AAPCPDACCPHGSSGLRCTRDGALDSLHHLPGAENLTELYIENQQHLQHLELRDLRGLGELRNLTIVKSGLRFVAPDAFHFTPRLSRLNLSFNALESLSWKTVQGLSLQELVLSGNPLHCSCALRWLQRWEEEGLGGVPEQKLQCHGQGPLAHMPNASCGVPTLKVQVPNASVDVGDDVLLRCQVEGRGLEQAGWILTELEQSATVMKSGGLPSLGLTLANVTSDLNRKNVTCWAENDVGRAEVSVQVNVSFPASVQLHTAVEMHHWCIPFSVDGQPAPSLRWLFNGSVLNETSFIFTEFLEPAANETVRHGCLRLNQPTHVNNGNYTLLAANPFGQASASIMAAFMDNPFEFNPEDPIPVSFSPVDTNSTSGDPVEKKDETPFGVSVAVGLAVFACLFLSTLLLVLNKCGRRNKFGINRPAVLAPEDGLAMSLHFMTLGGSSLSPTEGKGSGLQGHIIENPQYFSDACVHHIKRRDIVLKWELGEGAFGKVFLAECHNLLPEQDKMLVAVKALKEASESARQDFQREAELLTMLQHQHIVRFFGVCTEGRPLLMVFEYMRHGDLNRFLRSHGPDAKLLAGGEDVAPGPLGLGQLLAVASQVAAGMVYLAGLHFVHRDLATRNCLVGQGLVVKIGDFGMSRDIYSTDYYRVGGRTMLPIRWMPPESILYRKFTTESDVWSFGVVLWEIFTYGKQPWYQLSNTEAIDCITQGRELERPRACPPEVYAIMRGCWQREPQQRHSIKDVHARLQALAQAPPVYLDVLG
T3 sequence (Q9Y463 whole entry): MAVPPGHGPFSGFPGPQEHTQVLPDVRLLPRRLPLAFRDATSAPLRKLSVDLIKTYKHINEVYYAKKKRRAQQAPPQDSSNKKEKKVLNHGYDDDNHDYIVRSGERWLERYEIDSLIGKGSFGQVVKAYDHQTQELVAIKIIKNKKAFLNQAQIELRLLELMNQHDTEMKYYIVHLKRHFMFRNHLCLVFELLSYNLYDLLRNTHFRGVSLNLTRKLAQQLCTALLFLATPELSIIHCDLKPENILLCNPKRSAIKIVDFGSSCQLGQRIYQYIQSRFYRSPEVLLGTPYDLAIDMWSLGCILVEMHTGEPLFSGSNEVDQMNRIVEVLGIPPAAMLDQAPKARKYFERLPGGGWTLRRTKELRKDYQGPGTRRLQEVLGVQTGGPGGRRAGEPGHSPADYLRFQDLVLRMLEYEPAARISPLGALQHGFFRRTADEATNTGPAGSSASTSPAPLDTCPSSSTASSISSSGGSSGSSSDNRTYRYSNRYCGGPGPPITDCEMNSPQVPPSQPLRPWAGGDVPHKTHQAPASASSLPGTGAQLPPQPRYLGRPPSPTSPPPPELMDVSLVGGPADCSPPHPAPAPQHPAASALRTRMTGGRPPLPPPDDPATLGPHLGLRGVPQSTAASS

CSNK1D inhibitory activity [1]	DYRK1A inhibitory activity [2]	DYRK1B inhibitory activity [3]	NTRK1 inhibitory activity [4]	IC50 [5] [nM]	IC50 [6] [nM]	IC50 [7] [nM]	IC50 [8] [nM]	IC50 [9] [nM]	IC50 [10] [nM]	IC50 ([5]; Homo sapiens, 72 h) [nM]	IC50 ([6]; Homo sapiens, HCT-116, 72 h) [nM]	IC50 ([7]; Homo sapiens, 72 h) [nM]	IC50 ([8]; 72 h) [nM]	IC50 ([9]; Homo sapiens, SK-HEP1, 72 h) [nM]	IC50 ([10]; Homo sapiens, SNU-638, 72 h) [nM]	SMILES
++	+++	+++	++	3830	2780	4750	2450	1630	1470							N#Cc1cn([C@@H]2S[C@H](CN)[C@@H](O)[C@H]2O)c2ncnc(N)c12 [Compound 10b]
++	++	++	++	2510	1370	2430	2740	1760	2560							NC[C@H]1S[C@@H](n2cc(C(N)=O)c3c(N)ncnc32)[C@H](O)[C@@H]1O [Compound 10c]
++	++	++	++	2450	1830	1080	3560	2870	6730							N#Cc1cn([C@@H]2S[C@H](CNC(N)=O)[C@@H](O)[C@H]2O)c2ncnc(N)c12 [Compound 11aii]
++	++	++	++	4530	1360	2460	2810	7340	5570							NC(=O)NC[C@H]1S[C@@H](n2cc(C(N)=O)c3c(N)ncnc32)[C@H](O)[C@@H]1O [Compound 11aiii]
+++	++	++	+++							12200	12800	14500	14000	13000	10800	C#Cc1cn([C@@H]2S[C@H](CNCC)[C@@H](O)[C@H]2O)c2ncnc(N)c12 [Compound 11b, (2R,3R,4S,5R)-2-(4-amino-5-ethynyl-7H-pyrrolo[2,3-d]pyrimidin-7-yl)-5-((ethylamino)methyl)tetrahydrothiophene-3,4-diol]
++	++	++	++	590	850	1150	1390	1270	1200							C#Cc1cn([C@@H]2SC[C@@H](O)[C@H]2O)c2ncnc(N)c12 [Compound 13a]
++	+++	+++	++	960	860	1320	1740	640	1310							Nc1ncnc2c1c(-c1ccco1)cn2[C@@H]1SC[C@@H](O)[C@H]1O [Compound 13b]
+++	++	++	+++	2910	3380	5160	7010	2740	4120							Nc1ncnc2c1c(-c1cccs1)cn2[C@@H]1SC[C@@H](O)[C@H]1O [Compound 13c]
++	++	++	++	6830	4310	5930	9900	7810	5660							Nc1ncnc2c1c(-c1ccccc1)cn2[C@@H]1SC[C@@H](O)[C@H]1O [Compound 13d]
++	++	++	++	4330	2840	5330	5340	5110	3540							C=Cc1cn([C@@H]2SC[C@@H](O)[C@H]2O)c2ncnc(N)c12 [Compound 13e]
++	++	+++	++	2360	6370	2410	2450	5780	9350							N#Cc1cn([C@@H]2SC[C@@H](O)[C@H]2O)c2ncnc(N)c12 [Compound 13f]
+++	++	+++	+++	5270	9730	5670	2240	2130	8460							NC(=O)c1cn([C@@H]2SC[C@@H](O)[C@H]2O)c2ncnc(N)c12 [Compound 13g]
++	+++	+++	++							350	7280	520	2450	1370	5460	C#Cc1cn([C@@H]2S[C@H](CO)[C@@H](O)[C@H]2O)c2nc(Cl)nc(N)c12 [Compound 14, (2R,3R,4S,5R)-2-(4-amino-2-chloro-5-ethynyl-7H-pyrrolo[2,3-d]pyrimidin-7-yl)-5-(hydroxymethyl)tetrahydrothiophene-3,4-diol]
